Assay results taken from US20100324142A1, “HYDROCORTISONE DERIVATIVES AND USE THEREOF FOR THERAPEUTIC OR COSMETIC INDICATIONS” (priority 2007, published 2010).

System: physiopathological hair loss of unknown cause (patients suffering from alopecia)
Assay: Double blind clinical trial on two hundred patients suffering from alopecia
Assay type: in vivo, human
Method: Clinical Trial (Double Blind) on Two Hundred Patients Suffering from Alopecia
The action of the compound according to the invention, produced as described in Example 1, was assessed on a sample population of two hundred people, half of whom were of the female sex. All the persons included in the sample had been affected for at least four months by physiopathological hair loss of unknown cause.
A double blind trial was set up, in which one hundred patients were administered with a solution containing the compound according to the invention in bidistilled water and one hundred received a placebo solution. The solution according to the invention contained as excipients: sodium hydroxide, benzyl benzoate and benzalkonium chloride.

Structure (SMILES): CC1(CCC(=O)O)C(=O)CCC2C1C(O)CC1(C)C2CCC1(O)C(=O)CO (stereo not drawn) [compound according to the invention, 3-[3,5-dihydroxy-3-(2-hydroxy-acetyl)-3a,6-dimethyl-7-oxo-dodecahydro-cyclo-penta[α]naphtalen-6-yl]-propionic acid]
- patients with good hair regrowth observed (at the end of the trial, solution of the compound in bidistilled water, one hundred treated patients): 38%
- adverse side effects (even after many months of treatment): total absence of adverse side effects
- subjects in whom hair loss was arrested (within the first week of treatment, solution of the compound in bidistilled water, one hundred treated patients, double blind vs placebo): 94%
